# Source: PubChem BioAssay AID1919001 (Molecular Pharmacology Branch, DTP, NCI, 2023)
# Tested on: 699152-130-R-J1-PDC complex spheroid growth
# Test: Anticancer human tumor 699152-130-R-J1-PDC patient-derived pancreatic carcinoma cell line growth inhibition [AhR]
# Settings: for IC50: curve of first compound; for viability, T/C: stronger effect = lower value
# How it was run: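 Agents were dosed in half-log steps down from roughly clinical Cmax, or from 10 microM where Cmax was unknown, alone and with AhR antagonists. Read-out: percent test/control growth of tumor spheroids containing HUVEC and MSC stromal cells.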
# [1] = second compound 0.1 µM, first compound 0.0316 µM
# [2] = second compound 0.1 µM, first compound 0.1 µM
# [3] = second compound 0.1 µM, first compound 0.316 µM
# [4] = second compound 0.1 µM, first compound 1 µM
# [5] = second compound 0.316 µM, first compound 0.0316 µM
# [6] = second compound 0.316 µM, first compound 0.1 µM
# [7] = second compound 0.316 µM, first compound 0.316 µM
# [8] = second compound 0.316 µM, first compound 1 µM
# [9] = second compound 1 µM, first compound 0.0316 µM
# [10] = second compound 1 µM, first compound 0.1 µM
# [11] = second compound 1 µM, first compound 0.316 µM
# [12] = second compound 1 µM, first compound 1 µM
# [13] = second compound 3.16 µM, first compound 0.0316 µM
# [14] = second compound 3.16 µM, first compound 0.1 µM
# [15] = second compound 3.16 µM, first compound 0.316 µM
# [16] = second compound 3.16 µM, first compound 1 µM
# [17] = second compound 10 µM, first compound 0.0316 µM
# [18] = second compound 10 µM, first compound 0.1 µM
# [19] = second compound 10 µM, first compound 0.316 µM
# [20] = second compound 10 µM, first compound 1 µM
# [21] = second compound 0.1 µM, first compound 3.16 µM
# [22] = second compound 0.1 µM, first compound 10 µM
# [23] = second compound 0.316 µM, first compound 3.16 µM
# [24] = second compound 0.316 µM, first compound 10 µM
# [25] = second compound 1 µM, first compound 3.16 µM
# [26] = second compound 1 µM, first compound 10 µM
# [27] = second compound 3.16 µM, first compound 3.16 µM
# [28] = second compound 3.16 µM, first compound 10 µM
# [29] = second compound 10 µM, first compound 3.16 µM
# [30] = second compound 10 µM, first compound 10 µM
# 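Note: compound exposure lasted 7 days after spheroids had grown for 3 days.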
SMILES,IC50 (second compound 0.1 µM),IC50 (second compound 0.316 µM),IC50 (second compound 1 µM),IC50 (second compound 3.16 µM),IC50 (second compound 10 µM),"viability, T/C [1]","viability, T/C [2]","viability, T/C [3]","viability, T/C [4]","viability, T/C [5]","viability, T/C [6]","viability, T/C [7]","viability, T/C [8]","viability, T/C [9]","viability, T/C [10]","viability, T/C [11]","viability, T/C [12]","viability, T/C [13]","viability, T/C [14]","viability, T/C [15]",also measured
Nc1ncn(C2CC(O)C(CO)O2)c(=O)n1 (stereo not given) + Cc1ccccc1N=Nc1ccc(NC(=O)c2ccnn2C)c(C)c1,> 1 µM,> 1 µM,> 1 µM,> 1 µM,> 1 µM,93.7%,86.6%,81.9%,78.7%,99.7%,90.5%,85.6%,80.6%,87.9%,91.2%,88.7%,88.5%,86.8%,77.2%,104%,"viability, T/C (second compound 0.1 µM, first compound 0.00316 µM): 98.3%; viability, T/C (second compound 0.1 µM, first compound 0.01 µM): 98.6%; viability, T/C (second compound 0.316 µM, first compound 0.00316 µM): 95.3%; viability, T/C (second compound 0.316 µM, first compound 0.01 µM): 91.7%; viability, T/C (second compound 1 µM, first compound 0.00316 µM): 93.9%; viability, T/C (second compound 1 µM, first compound 0.01 µM): 95.6%; viability, T/C (second compound 3.16 µM, first compound 0.00316 µM): 104%; viability, T/C (second compound 3.16 µM, first compound 0.01 µM): 102%; viability, T/C [16]: 86.4%; viability, T/C (second compound 10 µM, first compound 0.00316 µM): 117%; viability, T/C (second compound 10 µM, first compound 0.01 µM): 103%; viability, T/C [17]: 75.3%; viability, T/C [18]: 83.9%; viability, T/C [19]: 86.5%; viability, T/C [20]: 85.6%"
Nc1ccn(C2OC(CO)C(O)C2(F)F)c(=O)n1 (stereo not given) + Cc1ccccc1N=Nc1ccc(NC(=O)c2ccnn2C)c(C)c1,0.156 µM,0.47 µM,0.39 µM,0.458 µM,1.74 µM,52.3%,55.2%,43.9%,45.8%,57.9%,58.4%,52.1%,46.8%,68.2%,58.7%,50.2%,46.4%,58.6%,57.1%,48.4%,"viability, T/C [21]: 39.6%; viability, T/C [22]: 33.9%; viability, T/C [23]: 40.1%; viability, T/C [24]: 41.6%; viability, T/C [25]: 44.2%; viability, T/C [26]: 43.1%; viability, T/C [16]: 48.3%; viability, T/C [27]: 44.5%; viability, T/C [28]: 39.5%; viability, T/C [17]: 74.9%; viability, T/C [18]: 61.9%; viability, T/C [19]: 56.2%; viability, T/C [20]: 51.8%; viability, T/C [29]: 48.5%; viability, T/C [30]: 47.2%"
Nc1ccccc1NC(=O)c1ccc(CNC(=O)OCc2cccnc2)cc1 + Cc1ccccc1N=Nc1ccc(NC(=O)c2ccnn2C)c(C)c1,7.66 µM,6.79 µM,7.2 µM,8.03 µM,> 10 µM,85.7%,97.6%,102%,111%,90.6%,93.8%,89.5%,90.7%,97.1%,95.3%,107%,97.4%,93.2%,93.3%,104%,"viability, T/C [21]: 77.8%; viability, T/C [22]: 41.6%; viability, T/C [23]: 67.5%; viability, T/C [24]: 41.1%; viability, T/C [25]: 76.6%; viability, T/C [26]: 39.4%; viability, T/C [16]: 112%; viability, T/C [27]: 73.2%; viability, T/C [28]: 44.5%; viability, T/C [17]: 115%; viability, T/C [18]: 116%; viability, T/C [19]: 109%; viability, T/C [20]: 102%; viability, T/C [29]: 91.8%; viability, T/C [30]: 58.2%"
CC1(C)CCC(CN2CCN(c3ccc(C(=O)NS(=O)(=O)c4ccc(NCC5CCOCC5)c([N+](=O)[O-])c4)c(Oc4cnc5[nH]ccc5c4)c3)CC2)=C(c2ccc(Cl)cc2)C1 + Cc1ccccc1N=Nc1ccc(NC(=O)c2ccnn2C)c(C)c1,> 10 µM,> 10 µM,> 10 µM,> 10 µM,> 10 µM,93.7%,102%,103%,95.9%,93.2%,103%,95.9%,95.5%,103%,101%,104%,102%,107%,95.2%,118%,"viability, T/C [21]: 101%; viability, T/C [22]: 68%; viability, T/C [23]: 93.5%; viability, T/C [24]: 74%; viability, T/C [25]: 101%; viability, T/C [26]: 65.8%; viability, T/C [16]: 102%; viability, T/C [27]: 86.5%; viability, T/C [28]: 71.8%; viability, T/C [17]: 114%; viability, T/C [18]: 124%; viability, T/C [19]: 118%; viability, T/C [20]: 113%; viability, T/C [29]: 108%; viability, T/C [30]: 68.2%"
